The record followed here is ChEMBL document CHEMBL4665648, “Potent and selective inhibitors of receptor-interacting protein kinase 1 that lack an aromatic back pocket group” (Bioorg Med Chem Lett, 2019).

In brackets after ≈: the same amount, converted by molar mass.

A short description of series [1]: Inhibition of necroptosis in human HT-29 cells assessed as reduction in TNFalpha/BV6/zVAD-fmk-induced cell death incubated for 18 hrs by Cell Titer Glo luminescent cell viability assay. It counts as functional, cell-based. The note with it: HT-29, 18 h.
In series [2] the target is T1, Receptor-interacting serine/threonine-protein kinase 1 (Homo sapiens, UniProt Q13546).
T1 sequence (Q13546 whole entry): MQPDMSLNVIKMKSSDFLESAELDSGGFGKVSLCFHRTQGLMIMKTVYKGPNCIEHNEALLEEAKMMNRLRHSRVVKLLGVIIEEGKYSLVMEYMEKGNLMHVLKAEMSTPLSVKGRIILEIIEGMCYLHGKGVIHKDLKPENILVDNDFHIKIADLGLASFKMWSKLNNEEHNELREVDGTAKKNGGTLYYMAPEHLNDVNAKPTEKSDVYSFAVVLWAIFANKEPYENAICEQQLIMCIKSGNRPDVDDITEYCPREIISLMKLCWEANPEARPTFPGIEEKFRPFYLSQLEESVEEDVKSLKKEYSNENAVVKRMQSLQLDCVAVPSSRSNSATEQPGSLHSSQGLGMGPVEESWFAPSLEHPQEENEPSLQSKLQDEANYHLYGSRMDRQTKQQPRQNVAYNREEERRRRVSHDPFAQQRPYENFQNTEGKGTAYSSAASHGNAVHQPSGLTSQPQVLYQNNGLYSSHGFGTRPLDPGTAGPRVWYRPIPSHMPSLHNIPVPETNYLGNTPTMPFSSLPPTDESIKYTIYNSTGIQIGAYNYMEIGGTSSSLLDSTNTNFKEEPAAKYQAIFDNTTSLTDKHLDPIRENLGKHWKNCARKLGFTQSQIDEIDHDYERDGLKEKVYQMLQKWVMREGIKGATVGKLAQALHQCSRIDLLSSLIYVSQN
Nature of the series: Inhibition of recombinant human His/GST-tagged RIPK1 (2 to 257 residues) expressed in insect expression system incubated for 2 hrs by fluorescence polarization assay. Conditions: read-out: Ki(app).

A short description of series [3]: Lipophilicity, logD of compound at pH 7.4. It counts as physicochemical. Conditions: buffer.
The nature of series [4]: Kinetic solubility of compound at pH 7.4. It is filed as physicochemical. The note with it: buffer, read-out: Kinetic_solubility.

With `CN1C(=O)[C@@H](NC(=O)c2n[nH]c3c2CCCC3)COc2ccccc21`, the concentration giving a half-maximal response (EC50) in series [1] worked out at 15000 nM.
In the case of `CN1C(=O)[C@@H](NC(=O)c2n[nH]c3c2C[C@H](C(C)(C)C)CC3)COc2ccccc21`, in series [1], the EC50 stood at 290 nM.
`CN1C(=O)[C@@H](NC(=O)c2n[nH]c3ccc(C(F)(F)F)cc23)COc2ccccc21`: the EC50 in series [1] was 28 nM. Moreover, the Ki in series [2] worked out at 5 nM.
Take `CN1C(=O)[C@@H](NC(=O)c2n[nH]c3c2C[C@H](C(F)(F)F)CC3)COc2ccccc21`: in series [1], the EC50 was 43 nM. Also, in series [2], the Ki was 7 nM.
`CN1C(=O)[C@@H](NC(=O)c2nnc3ccc(C(F)(F)F)nn23)COc2ccccc21`: the logD in series [3] stood at 1. The solubility kinetic in series [4] amounted to 160 µM (≈ 65 µg/mL). The concentration giving a half-maximal response (EC50) in series [1] is 2400 nM.
With `CN1C(=O)[C@@H](NC(=O)c2n[nH]c3c2CC(c2ccccc2)CC3)COc2ccccc21` (mixture of isomers), in series [1], the concentration giving a half-maximal response (EC50) was 520 nM.
Regarding `CN1C(=O)[C@@H](NC(=O)c2nnc[nH]2)COc2ccccc21`, the concentration for a half-maximal effect (EC50) in series [1] was above 20000 nM. Further, the Ki in series [2] was above 10000 nM.
As for `CN1C(=O)[C@@H](NC(=O)c2nnn3c2C[C@H](C(F)(F)F)CC3)COc2ccccc21`, in series [3], the log distribution coefficient (logD) is 1.5. Moreover, the solubility kinetic in series [4] turned out to be 99 µM (≈ 40.5 µg/mL). In addition, the EC50 in series [1] is 210 nM.
On to `CN1C(=O)[C@@H](NC(=O)c2n[nH]c3c2CCC2(CC2)C3)COc2ccccc21`, for which the EC50 in series [1] is above 20000 nM.
For the compound `CN1C(=O)[C@@H](NC(=O)c2n[nH]c3c2CCC(C)(C)C3)COc2ccccc21`, the EC50 in series [1] was above 20000 nM. For the same compound, the Ki in series [2] was above 10000 nM.
In the case of `C[C@H]1CCc2[nH]nc(C(=O)N[C@H]3COc4ccccc4N(C)C3=O)c2C1`, the EC50 in series [1] was 400 nM.
In series [3], `CC(C)c1cnc2[nH]nc(C(=O)N[C@H]3COc4ccccc4N(C)C3=O)c2c1` came in with a logD of 3.5. In addition, in series [4], the solubility kinetic came to 3.4 µM (≈ 1.29 µg/mL). Besides, the concentration giving a half-maximal response (EC50) in series [1] worked out at 390 nM.
For the compound `CN1C(=O)[C@@H](NC(=O)c2n[nH]c3c2CC(n2cccn2)CC3)COc2ccccc21` (mixture of isomers), the half-maximal effective concentration (EC50) in series [1] was found to be 4100 nM.
Regarding `CN1C(=O)[C@@H](NC(=O)c2nn(C)c3c2C[C@H](C(F)(F)F)CC3)COc2ccccc21`, the EC50 in series [1] was found to be 500 nM. Moreover, the Ki in series [2] was 63 nM.
As to `CN1C(=O)[C@@H](NC(=O)c2n[nH]c3c2C2CC2CC3)COc2ccccc21` (single isomer, unassigned; diastereomer 1), the EC50 in series [1] was 6900 nM.
`CN1C(=O)[C@@H](NC(=O)c2ncn3ccc(C(F)(F)F)cc23)COc2ccccc21`: the concentration for a half-maximal effect (EC50) in series [1] was 12 nM. Also, the Ki in series [2] turned out to be 5 nM.
Compound `CN1C(=O)[C@@H](NC(=O)c2nnn3c2CC(C(F)(F)C(F)(F)F)CC3)COc2ccccc21` (mixture of isomers) came in with a logD in series [3] of 2. For the same compound, in series [4], the solubility kinetic stood at 57.1 µM. In addition, the concentration giving a half-maximal response (EC50) in series [1] is 64 nM.
In the case of `CN1C(=O)[C@@H](NC(=O)c2n[nH]c3c2CC2CC2C3)COc2ccccc21` (mixture of isomers), the EC50 in series [1] was determined as 7000 nM.
For the compound `CN1C(=O)[C@@H](NC(=O)c2nnc3ccc(C(F)(F)C(F)(F)F)nn23)COc2ccccc21`, in series [3], the logD is 1.6. In addition, the solubility kinetic in series [4] came to 164 µM (≈ 74.8 µg/mL). Also, the EC50 in series [1] was 130 nM.
Take `C[C@@H]1CCc2[nH]nc(C(=O)N[C@H]3COc4ccccc4N(C)C3=O)c2C1`: the EC50 in series [1] is 130 nM.
Take `CN1C(=O)[C@@H](NC(=O)c2n[nH]c3ncc(C(F)(F)F)cc23)COc2ccccc21`: the logD in series [3] was 3.3. For the same compound, in series [4], the solubility kinetic came to 59 µM (≈ 23.9 µg/mL). In addition, in series [1], the EC50 was determined as 580 nM.
For the compound `CN1C(=O)[C@@H](NC(=O)c2n[nH]c3c2CC(C)(C)CC3)COc2ccccc21`, the 50% effective concentration (EC50) in series [1] amounted to 170 nM. In addition, the Ki in series [2] came to 42 nM.
